For one molecule, IC50 results are on record in ChEMBL document CHEMBL2073998, “Piperine, a major constituent of black pepper, inhibits human P-glycoprotein and CYP3A4” (J Pharmacol Exp Ther, 2002).

Assay [1] concerns the target T1, ATP-dependent translocase ABCB1 (Homo sapiens, UniProt P08183). In words: TP_TRANSPORTER: inhibition of Cyclosporin A transepithelial transport (basal to apical) (Cyclosporin A: 1 uM) in Caco-2 cells. The class given is functional, cell-based. (Caco-2 monolayers are a common model of the intestinal barrier.)
Assay [2] addresses T1, ATP-dependent translocase ABCB1. Kind of assay: TP_TRANSPORTER: inhibition of Digoxin transepithelial transport (basal to apical) (Digoxin: 5 uM) in Caco-2 cells. The class given is functional, cell-based.

One may read the IC50 as the concentration needed to halve the response being measured.

T1 sequence (P08183 whole entry): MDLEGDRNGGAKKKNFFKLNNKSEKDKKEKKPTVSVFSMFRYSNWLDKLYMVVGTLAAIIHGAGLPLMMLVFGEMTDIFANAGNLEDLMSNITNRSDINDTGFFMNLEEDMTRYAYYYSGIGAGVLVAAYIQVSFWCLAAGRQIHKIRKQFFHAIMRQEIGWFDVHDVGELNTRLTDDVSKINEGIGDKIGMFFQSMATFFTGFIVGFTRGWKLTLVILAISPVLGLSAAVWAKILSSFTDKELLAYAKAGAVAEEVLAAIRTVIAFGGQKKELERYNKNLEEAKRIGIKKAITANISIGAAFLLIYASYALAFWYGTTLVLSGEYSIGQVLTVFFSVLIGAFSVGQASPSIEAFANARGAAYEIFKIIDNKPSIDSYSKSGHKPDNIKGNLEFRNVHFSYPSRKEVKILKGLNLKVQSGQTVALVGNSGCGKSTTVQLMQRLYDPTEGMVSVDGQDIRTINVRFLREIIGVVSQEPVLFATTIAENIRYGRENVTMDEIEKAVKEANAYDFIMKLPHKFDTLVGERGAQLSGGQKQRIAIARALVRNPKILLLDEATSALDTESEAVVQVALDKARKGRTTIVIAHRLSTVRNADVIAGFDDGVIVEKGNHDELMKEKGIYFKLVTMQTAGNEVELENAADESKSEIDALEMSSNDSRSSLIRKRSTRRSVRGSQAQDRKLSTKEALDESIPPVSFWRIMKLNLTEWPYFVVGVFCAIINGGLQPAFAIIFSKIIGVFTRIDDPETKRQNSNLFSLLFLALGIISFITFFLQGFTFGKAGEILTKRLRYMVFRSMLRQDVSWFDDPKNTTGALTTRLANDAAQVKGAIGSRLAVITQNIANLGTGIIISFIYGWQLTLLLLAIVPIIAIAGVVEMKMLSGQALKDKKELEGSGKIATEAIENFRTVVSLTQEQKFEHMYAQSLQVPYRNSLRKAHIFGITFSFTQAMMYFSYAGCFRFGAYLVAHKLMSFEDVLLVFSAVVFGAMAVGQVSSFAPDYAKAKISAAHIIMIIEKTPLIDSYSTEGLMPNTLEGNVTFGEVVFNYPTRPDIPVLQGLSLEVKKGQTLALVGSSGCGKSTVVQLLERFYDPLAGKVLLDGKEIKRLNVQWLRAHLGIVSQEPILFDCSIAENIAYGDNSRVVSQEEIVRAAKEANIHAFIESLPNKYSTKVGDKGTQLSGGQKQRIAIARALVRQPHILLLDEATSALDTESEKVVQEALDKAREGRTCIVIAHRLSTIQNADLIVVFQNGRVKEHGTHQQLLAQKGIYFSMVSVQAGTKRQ

As to `O=C(/C=C/C=C/c1ccc2c(c1)OCO2)N1CCCCC1` [PIPERINE], the half-maximal inhibitory concentration (IC50) was 74.1 µM in assay [1] and 15.5 µM in assay [2].
